Laboratory results published in the OligoGym collection.
HELM strings list units from the 5' end as sugar, base in round brackets, then linkage (d deoxyribose, r ribose, m 2'-O-methyl, p phosphodiester). Strings are as the collection lists them; they lack the last nucleoside at the 3' end of the tested compound. [moe] = 2'-O-(2-methoxyethyl) (MOE); [sp] = phosphorothioate linkage; [m5C] = 5-methylcytosine

Molecular target: UBE3A-ATS
Experiment: mouse, dose not given
Conditions: ASO

| Substance | 3 h FOB score [score 0-7] |
| --- | --- |
| RNA1{[moe](A)[sp].[moe](T)p.[moe](G)p.[moe](T)p.[moe](A)p.d(T)[sp].d([m5C])[sp].d(A)[sp].d(G)[sp].d(G)[sp].d([m5C])[sp].d(A)[sp].d(A)[sp].d([m5C])[sp].d(A)[sp].[moe](G)p.[moe](A)p.[moe](A)[sp].[moe](T)}$$$$ (last 3' nucleoside missing) | 5 |
| RNA1{[moe](A)[sp].[moe](T)p.[moe](G)p.[moe](T)p.[moe](G)p.[moe]([m5C])p.d(A)[sp].d(T)[sp].d(A)[sp].d([m5C])[sp].d([m5C])[sp].d([m5C])[sp].d(A)[sp].d(G)[sp].d(G)[sp].d(G)[sp].[moe](T)p.[moe](A)[sp].[moe](G)}$$$$ (last 3' nucleoside missing) | 3.5 |
| RNA1{[moe](A)[sp].[moe](T)p.[moe](G)p.[moe](T)p.[moe](G)p.d(G)[sp].d(G)[sp].d([m5C])[sp].d([m5C])[sp].d(T)[sp].d([m5C])[sp].d(T)[sp].d(A)[sp].d(T)[sp].d(T)[sp].[moe](A)p.[moe](A)p.[moe](G)[sp].[moe](A)}$$$$ (last 3' nucleoside missing) | 0.7 |
| RNA1{[moe](A)[sp].[moe](T)p.[moe](G)p.[moe](T)p.[moe](G)p.d([m5C])[sp].d(A)[sp].d(T)[sp].d(A)[sp].d([m5C])[sp].d([m5C])[sp].d([m5C])[sp].d(A)[sp].d(G)[sp].d(G)[sp].[moe](G)p.[moe](T)p.[moe](A)[sp].[moe](G)}$$$$ (last 3' nucleoside missing) | 4 |
| RNA1{[moe](A)[sp].[moe](T)p.[moe](G)p.[moe](T)p.d(G)[sp].d([m5C])[sp].d(A)[sp].d(T)[sp].d(A)[sp].d([m5C])[sp].d([m5C])[sp].d([m5C])[sp].d(A)[sp].d(G)[sp].[moe](G)p.[moe](G)p.[moe](T)p.[moe](A)[sp].[moe](G)}$$$$ (last 3' nucleoside missing) | 1.8 |
| RNA1{[moe](A)[sp].[moe](T)p.[moe](T)p.[moe](G)p.[moe](A)p.d([m5C])[sp].d(A)[sp].d([m5C])[sp].d([m5C])[sp].d(T)[sp].d([m5C])[sp].d([m5C])[sp].d(A)[sp].d(A)[sp].d([m5C])[sp].[moe](T)p.[moe](G)p.[moe](T)[sp].[moe](A)}$$$$ (last 3' nucleoside missing) | 0.7 |
| RNA1{[moe](A)[sp].[moe](T)p.[moe](T)p.[moe](G)p.[moe](G)p.[moe](T)p.d([m5C])[sp].d(A)[sp].d(T)[sp].d([m5C])[sp].d(T)[sp].d([m5C])[sp].d(G)[sp].d(G)[sp].d(G)[sp].d(T)[sp].[moe](A)p.[moe](T)[sp].[moe](A)}$$$$ (last 3' nucleoside missing) | 4 |
| RNA1{[moe](A)[sp].[moe](T)p.[moe](T)p.[moe](G)p.[moe](G)p.d(T)[sp].d([m5C])[sp].d(A)[sp].d(T)[sp].d([m5C])[sp].d(T)[sp].d([m5C])[sp].d(G)[sp].d(G)[sp].d(G)[sp].[moe](T)p.[moe](A)p.[moe](T)[sp].[moe](A)}$$$$ (last 3' nucleoside missing) | 2.8 |
| RNA1{[moe](A)[sp].[moe](T)p.[moe](T)p.[moe](G)p.[moe](T)p.d([m5C])[sp].d([m5C])[sp].d(T)[sp].d([m5C])[sp].d([m5C])[sp].d(T)[sp].d(G)[sp].d(G)[sp].d(T)[sp].d(A)[sp].[moe](A)p.[moe]([m5C])p.[moe]([m5C])[sp].[moe](A)}$$$$ (last 3' nucleoside missing) | 1.2 |
| RNA1{[moe](A)[sp].[moe](T)p.[moe](T)p.[moe](G)p.d(G)[sp].d(T)[sp].d([m5C])[sp].d(A)[sp].d(T)[sp].d([m5C])[sp].d(T)[sp].d([m5C])[sp].d(G)[sp].d(G)[sp].[moe](G)p.[moe](T)p.[moe](A)p.[moe](T)[sp].[moe](A)}$$$$ (last 3' nucleoside missing) | 4 |
| RNA1{[moe](A)[sp].[moe](T)p.[moe](T)p.[moe]([m5C])p.[moe](A)p.d(G)[sp].d(A)[sp].d(T)[sp].d(A)[sp].d([m5C])[sp].d(T)[sp].d(A)[sp].d(G)[sp].d(T)[sp].d(T)[sp].[moe](T)p.[moe](A)p.[moe]([m5C])[sp].[moe]([m5C])}$$$$ (last 3' nucleoside missing) | 2.8 |
| RNA1{[moe](A)[sp].[moe](T)p.[moe](T)p.[moe]([m5C])p.[moe](A)p.d(G)[sp].d([m5C])[sp].d(A)[sp].d([m5C])[sp].d(T)[sp].d(T)[sp].d(A)[sp].d(G)[sp].d(G)[sp].d(T)[sp].[moe](A)p.[moe](G)p.[moe](T)[sp].[moe](T)}$$$$ (last 3' nucleoside missing) | 3.3 |
| RNA1{[moe](A)[sp].[moe](T)p.[moe]([m5C])p.[moe](A)p.[moe](G)p.d(G)[sp].d(G)[sp].d([m5C])[sp].d(A)[sp].d([m5C])[sp].d(A)[sp].d(T)[sp].d(G)[sp].d(G)[sp].d(A)[sp].[moe](G)p.[moe](T)p.[moe](T)[sp].[moe](G)}$$$$ (last 3' nucleoside missing) | 6.8 |
| RNA1{[moe](A)[sp].[moe](T)p.[moe]([m5C])p.[moe](A)p.[moe](T)p.d(G)[sp].d(T)[sp].d(G)[sp].d([m5C])[sp].d(A)[sp].d(T)[sp].d(A)[sp].d([m5C])[sp].d([m5C])[sp].d([m5C])[sp].[moe](A)p.[moe](G)p.[moe](G)[sp].[moe](G)}$$$$ (last 3' nucleoside missing) | 0 |
| RNA1{[moe](A)[sp].[moe](T)p.[moe]([m5C])p.[moe](A)p.[moe]([m5C])p.d(A)[sp].d(T)[sp].d(T)[sp].d(A)[sp].d([m5C])[sp].d([m5C])[sp].d([m5C])[sp].d(A)[sp].d(T)[sp].d([m5C])[sp].[moe]([m5C])p.[moe](G)p.[moe](T)[sp].[moe](T)}$$$$ (last 3' nucleoside missing) | 0 |
| RNA1{[moe](A)[sp].[moe](T)p.[moe]([m5C])p.[moe](T)p.[moe](G)p.d(G)[sp].d(T)[sp].d([m5C])[sp].d(T)[sp].d(T)[sp].d(G)[sp].d(G)[sp].d(G)[sp].d(A)[sp].d(T)[sp].[moe](T)p.[moe](A)p.[moe](T)[sp].[moe](A)}$$$$ (last 3' nucleoside missing) | 4.8 |
| RNA1{[moe](A)[sp].[moe](T)p.[moe]([m5C])p.[moe](T)p.[moe]([m5C])p.d(G)[sp].d(G)[sp].d(G)[sp].d(T)[sp].d(A)[sp].d(T)[sp].d(A)[sp].d(T)[sp].d(A)[sp].d(A)[sp].[moe](A)p.[moe](T)p.[moe](T)[sp].[moe](A)}$$$$ (last 3' nucleoside missing) | 0 |
| RNA1{[moe](A)[sp].[moe]([m5C])[sp].[moe](A)[sp].[moe](T)[sp].[moe](T)[sp].d(T)[sp].d([m5C])[sp].d(T)[sp].d(T)[sp].d(A)[sp].d(G)[sp].d(T)[sp].d(T)[sp].d(G)[sp].d(A)[sp].[moe](A)[sp].[moe]([m5C])[sp].[moe](A)[sp].[moe](G)}$$$$ (last 3' nucleoside missing) | 6.5 |
| RNA1{[moe](A)[sp].[moe]([m5C])p.[moe](A)p.[moe](T)p.[moe](A)p.d([m5C])[sp].d(T)[sp].d(T)[sp].d(G)[sp].d(G)[sp].d(T)[sp].d(T)[sp].d(G)[sp].d([m5C])[sp].d(A)[sp].[moe](G)p.[moe](A)p.[moe]([m5C])[sp].[moe](G)}$$$$ (last 3' nucleoside missing) | 4.8 |
| RNA1{[moe](A)[sp].[moe]([m5C])p.[moe](A)p.[moe]([m5C])p.[moe](T)p.d(T)[sp].d(T)[sp].d([m5C])[sp].d(A)[sp].d(T)[sp].d([m5C])[sp].d(A)[sp].d(G)[sp].d(T)[sp].d(T)[sp].[moe](A)p.[moe](G)p.[moe](T)[sp].[moe]([m5C])}$$$$ (last 3' nucleoside missing) | 1 |
| RNA1{[moe](A)[sp].[moe]([m5C])p.[moe](G)p.[moe]([m5C])[sp].d(A)[sp].d(A)[sp].d(T)[sp].d(G)[sp].d(T)[sp].d(A)[sp].d(T)[sp].d([m5C])[sp].[moe](A)p.[moe](G)p.[moe](G)p.[moe]([m5C])[sp].[moe](A)}$$$$ (last 3' nucleoside missing) | 1 |
| RNA1{[moe](A)[sp].[moe]([m5C])p.[moe](G)p.[moe]([m5C])p.[moe](A)[sp].d(A)[sp].d(T)[sp].d(G)[sp].d(T)[sp].d(A)[sp].d(T)[sp].d([m5C])[sp].d(A)[sp].[moe](G)p.[moe](G)p.[moe]([m5C])[sp].[moe](A)}$$$$ (last 3' nucleoside missing) | 2.3 |
| RNA1{[moe](A)[sp].[moe]([m5C])p.[moe](G)p.[moe]([m5C])p.[moe](A)p.[moe](A)[sp].d(T)[sp].d(G)[sp].d(T)[sp].d(A)[sp].d(T)[sp].d([m5C])[sp].d(A)[sp].d(G)[sp].[moe](G)p.[moe]([m5C])[sp].[moe](A)}$$$$ (last 3' nucleoside missing) | 0 |
| RNA1{[moe](A)[sp].[moe]([m5C])p.[moe](T)p.[moe](A)p.[moe](T)p.d([m5C])[sp].d([m5C])[sp].d(T)[sp].d(G)[sp].d([m5C])[sp].d(A)[sp].d(T)[sp].d([m5C])[sp].d([m5C])[sp].d(G)[sp].[moe](A)p.[moe](G)p.[moe](G)[sp].[moe]([m5C])}$$$$ (last 3' nucleoside missing) | 1 |
| RNA1{[moe](A)[sp].[moe]([m5C])p.[moe](T)p.[moe](G)p.[moe](G)p.d([m5C])[sp].d(A)[sp].d(T)[sp].d(A)[sp].d(T)[sp].d(T)[sp].d([m5C])[sp].d([m5C])[sp].d(G)[sp].d(A)[sp].[moe](T)p.[moe](T)p.[moe](A)[sp].[moe](T)}$$$$ (last 3' nucleoside missing) | 3 |
| RNA1{[moe](A)[sp].[moe]([m5C])p.[moe](T)p.[moe](G)p.[moe](T)p.d(T)[sp].d(A)[sp].d([m5C])[sp].d([m5C])[sp].d(A)[sp].d(A)[sp].d(G)[sp].d(A)[sp].d([m5C])[sp].d(T)[sp].[moe](T)p.[moe]([m5C])p.[moe](A)[sp].[moe](G)}$$$$ (last 3' nucleoside missing) | 3.8 |
